Results taken from patent US7217722B2 (Kirin Beer Kabushiki Kaisha, priority 2000, dated 2007).

biological target: Rho kinase (fused protein of bovine Rho kinase catalyst region and glutathione S-transferase) (Bos taurus, UniProt Q28021); assay: Rho kinase inhibitory activity (phosphorylation of S6 231–239 substrate, γ32P-ATP); assay type: biochemical; conditions: concentration inhibiting substrate phosphorylation by 50%
Method: This permits the substrate to be labeled with the radioisotope.
Thereafter, the substrate was adsorbed to a filter paper. ATP was washed away with a phosphoric acid solution, and the amount of the phosphorylated substrate was then measured with a liquid scintillation counter.

Sequence of Rho kinase (fused protein of bovine Rho kinase catalyst region and glutathione S-transferase) (Q28021 92-354 limits assumed): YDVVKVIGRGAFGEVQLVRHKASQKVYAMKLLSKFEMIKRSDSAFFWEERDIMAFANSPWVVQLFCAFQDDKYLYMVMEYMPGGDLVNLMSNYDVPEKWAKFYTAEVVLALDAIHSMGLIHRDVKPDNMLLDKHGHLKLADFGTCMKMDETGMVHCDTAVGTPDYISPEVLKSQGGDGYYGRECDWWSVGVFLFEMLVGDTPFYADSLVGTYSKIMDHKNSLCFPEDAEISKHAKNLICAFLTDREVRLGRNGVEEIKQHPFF

Row | IC50 [nM] | SMILES
1 | 90 | c1ccc(CNC2CCC(Nc3ccc4[nH]ncc4c3)CC2)cc1 (mixture of isomers) [Example 171, N1-Benzyl-N4-(1H-5-indazolyl)-1,4-cyclohexanediamine]
2 | 200 | O=C(Nc1ccncc1)Nc1c(Cl)cc(Cl)cc1Cl [Example 1, N-(4-Pyridyl)-N′-(2,4,6-trichlorophenyl)urea]
3 | 2210 | O=C(COc1c(Br)cc(F)cc1Br)Nc1ccncc1 [Example 2, N1-(4-Pyridyl)-2-(2,6-dibromo-4-fluorophenoxy)acetamide]
4 | 910 | O=C(COc1c(Cl)cccc1Cl)Nc1ccncc1 [Example 3, N1-(4-Pyridyl)-2-(2,6-dichlorophenoxy)acetamide]
5 | 2540 | O=C(/C=C/c1c(Cl)cccc1Cl)Nc1ccncc1 [Example 7, N1-(4-Pyridyl)-(E)-3-(2,6-dichlorophenyl)-2-propeneamide]
6 | 2000 | O=C(Nc1ccncc1)Nc1c(F)cccc1F [Example 8, N-(2,6-Difluorophenyl)-N′-(4-pyridyl)urea]
7 | 850 | O=C(Nc1ccncc1)Nc1c(Cl)cccc1Cl [Example 9, N-(2,6-Dichlorophenyl)-N′-(4-pyridyl)urea]
8 | 980 | O=C(Nc1ccc2[nH]ncc2c1)Nc1c(Cl)cccc1Cl [Example 13, N-(2,6-Dichlorophenyl)-N′-(1H-5-indazolyl)urea]
9 | 1140 | O=C(COc1c(Cl)cccc1Cl)Nc1ccc2[nH]ncc2c1 [Example 14, N1-(1H-5-Indazolyl)-2-(2,6-dichlorophenoxy)acetamide]
10 | 460 | O=C(COc1c(Cl)cc(F)cc1Cl)Nc1ccc2[nH]ncc2c1 [Example 15, N1-(1H-5-Indazolyl)-2-(2,6-dichloro-4-fluorophenoxy)acetamide]
11 | 9600 | O=C(CSc1c(Cl)cccc1Cl)Nc1ccncc1 [Example 17, N1-(4-Pyridyl)-2-[(2,6-dichlorophenyl)-sulfanyl]acetamide]
12 | 2870 | O=C(Nc1ccncc1)Nc1c(F)cccc1Cl [Example 18, N-(2-Chloro-6-fluorophenyl)-N′-(4-pyridyl)urea]
13 | 7260 | O=C(Nc1ccncc1)NC1CCCCC1 [Example 19, N-Cyclohexyl-N′-(4-pyridyl)urea]
14 | 124 | Brc1cccc(CN2CCC(Nc3ccc4[nH]ncc4c3)CC2)c1 [Example 23]
15 | 480 | O=C(COc1c(Cl)cc(F)cc1Cl)Nc1ccncc1 [Example 24, N1-(4-Pyridyl)-2-(2,6-dichloro-4-fluorophenoxy)acetamide]
16 | 1030 | CCOC(=O)c1cc(Cl)c(OCC(=O)Nc2ccncc2)c(Cl)c1 [Example 26, Ethyl 3,5-dichloro-4-[2-oxo-2-(4-pyridylamino)ethoxy]benzoate]
17 | 8110 | O=C(COc1c(F)cc(F)cc1F)Nc1ccncc1 [Example 28, N1-(4-Pyridyl)-2-(2,4,6-trifluorophenoxy)acetamide]
18 | 8590 | CCC(=O)c1cc(F)c(OCC(=O)Nc2ccncc2)c(F)c1 [Example 29, N1-(4-Pyridyl)-2-(2,6-difluoro-4-propionyl-phenoxy)acetamiden]
19 | 1150 | Cc1cc(Cl)c(OCC(=O)Nc2ccncc2)c(Cl)c1 [Example 30, N1-(4-Pyridyl)-2-(2,6-dichloro-4-methylphenoxy)acetamide]

Row | IC50 [nM] | SMILES
20 | 5290 | O=C(CC1CCCCC1)Nc1ccncc1 [Example 31, N1-(4-Pyridyl)-2-cyclohexylacetamide]
21 | 1370 | O=C(COc1c(Cl)cc(F)cc1Cl)Nc1ncnc2[nH]ncc12 [Example 32, N1-(1H-Pyrazolo[3,4-d]pyrimidin-4-yl)-2-(2,6-dichloro-4-fluorophenoxy)acetamide]
22 | 470 | O=C(Nc1ccc2[nH]ncc2c1)C1CCCCC1 [Example 33]
23 | 870 | O=C(CC1CCCCC1)Nc1ccc2[nH]ncc2c1 [Example 34, N1-(1H-5-Indazoyl)-1-cyclohexylacetamide]
24 | 1280 | O=C(/C=C/c1ccccc1O)Nc1ccc2[nH]ncc2c1 [Example 35, N1-(1H-5-Indazolyl)-(E)-3-(2-hydroxyphenyl)-2-propeneamide]
25 | 600 | O=C(/C=C/c1cccc(O)c1)Nc1ccc2[nH]ncc2c1 [Example 36, N1-(1H-5-Indazolyl)-(E)-3-(3-hydroxyphenyl)-2-propeneamide]
26 | 305 | O=C(/C=C/c1ccc(O)cc1)Nc1ccc2[nH]ncc2c1 [Example 37, N1-(1H-5-Indazolyl)-(E)-3-(4-hydroxyphenyl)-2-propeneamide]
27 | 107 | O=C(/C=C/c1ccc(O)c(O)c1)Nc1ccc2[nH]ncc2c1 [Example 38, N1-(1H-5-Indazolyl)-(E)-3-(3,4-dihydroxyphenyl)-2-propeneamide]
28 | 122 | O=C(Cc1ccc([N+](=O)[O-])cc1[N+](=O)[O-])Nc1ccc2[nH]ncc2c1 [Example 39, N1-(1H-5-Indazolyl)-2-(2,4-dinitrophenyl)acetamide]
29 | 231 | COc1cc(/C=C/C(=O)Nc2ccc3[nH]ncc3c2)ccc1O [Example 40, N1-(1H-5-Indazolyl)-(E)-3-(4-hydroxy-3-methoxyphenyl)-2-propeneamide]
30 | 224 | COc1ccc(/C=C/C(=O)Nc2ccc3[nH]ncc3c2)cc1O [Example 41, N1-(1H-5-Indazolyl)-(E)-3-(3-hydroxy-4-methoxyphenyl)-2-propeneamide]
31 | 605 | COc1ccc(/C=C/C(=O)Nc2ccc3[nH]ncc3c2)cc1OC [Example 42, N1-(1H-5-Indazolyl)-(E)-3-(3,4-dimethoxyphenyl)-2-propeneamide]
32 | 394 | O=C(Cc1ccc(O)c(O)c1)Nc1ccc2[nH]ncc2c1 [Example 44, N1-(1H-5-Indazolyl)-2-(3,4-dihydroxyphenyl)acetamide]
33 | 153 | O=C(Cc1ccc2c(c1)OCO2)Nc1ccc2[nH]ncc2c1 [Example 45, N1-(1H-5-Indazolyl)-2-(1,3-benzodioxol-5-yl)acetamide]
34 | 735 | O=C(CCc1ccc(O)cc1)Nc1ccc2[nH]ncc2c1 [Example 47, N1-(1H-5-Indazolyl)-3-(4-hydroxyphenyl)-propaneamide]
35 | 191 | O=C(Cc1cccc([N+](=O)[O-])c1)Nc1ccc2[nH]ncc2c1 [Example 48, N1-(1H-5-Indazolyl)-2-(3-nitrophenyl)acetamide]
36 | 513 | O=C(Cc1ccc([N+](=O)[O-])cc1)Nc1ccc2[nH]ncc2c1 [Example 49, N1-(1H-5-Indazolyl)-2-(4-nitrophenyl)acetamide]
37 | 326 | O=C(CNc1ccc(O)cc1)Nc1ccc2[nH]ncc2c1 [Example 50, N1-(1H-5-Indazolyl)-2-(4-hydroxyanilino)acetamide]
38 | 459 | O=C(COc1ccc(O)cc1)Nc1ccc2[nH]ncc2c1 [Example 51, N1-(1H-5-Indazolyl)-2-(4-hydroxyphenoxy)acetamide]

Row | IC50 [nM] | SMILES
39 | 230 | O=C(CCc1ccc2c(c1)OCO2)Nc1ccc2[nH]ncc2c1 [Example 52, N1-(1H-5-Indazolyl)-3-(1,3-benzodioxol-5-yl)propaneamide]
40 | 4140 | O=C(NCc1ccc(Cl)cc1Cl)Nc1ccncc1 [Example 53, N-(2,4-Dichlorobenzyl)-N′-(4-pyridyl)urea]
41 | 1040 | O=C(NCc1c(Cl)ccc(Cl)c1Cl)Nc1ccncc1 [Example 55, N′-(4-Pyridyl)-N-(2,3,6-trichlorobenzyl)urea]
42 | 1110 | O=C(Nc1ccncc1)Nc1c(F)cc(F)cc1Br [Example 57]
43 | 13500 | O=C(Nc1ccncc1)Nc1c(F)cccc1C(F)(F)F [Example 58]
44 | 7270 | O=C(Nc1ccncc1)Nc1ccc(F)cc1C(F)(F)F [Example 59, N-[4-Fluoro-2-(trifluoromethyl)phenyl]-N′-(4-pyridyl)urea]
45 | 11000 | O=C(Nc1ccncc1)Nc1ccc(Br)cc1F [Example 60, N-(4-Bromo-2-fluorophenyl)-N′-(4-pyridyl)urea]
46 | 6950 | O=C(NCc1c(F)cccc1F)Nc1ccncc1 [Example 61, N-(2,6-Difluorobenzyl)-N′-(4-pyridyl)urea]
47 | 2500 | O=C(Nc1ccncc1)Nc1c(Cl)cc(C(F)(F)F)cc1Cl [Example 63, N-[2,6-Dichloro-4-(trifluoromethyl)phenyl]-N′-(4-pyridyl)urea]
48 | 2190 | O=C(NCc1c(F)cccc1C(F)(F)F)Nc1ccncc1 [Example 64, N-[2-Fluoro-6-(trifluoromethyl)benzyl]-N′-(4-pyridyl)urea]
49 | 9000 | NC(=O)c1ccc(NC(=O)Nc2c(Cl)cccc2Cl)cc1 [Example 65, 4-{[(2,6-Dichloroanilino)carbonyl]amino}-benzamide]
50 | 6570 | O=C(Nc1ccncc1)Nc1c[nH]c2ccccc12 [Example 66, N-(1H-3-Indolyl)-N′-(4-pyridyl)urea]
51 | 1920 | O=C(Nc1ccc2c(c1)C(=O)NC2=O)Nc1c(Cl)cccc1Cl [Example 67, N-(2,6-Dichlorophenyl)-N′-(1,3-dioxo-2,3-dihydro-1H-isoindolyl)urea]
52 | 110 | O=C(NCc1c(Cl)cccc1Cl)Nc1ccc2c(c1)C(=O)NC2=O [Example 68, N1-(2,6-Dichlorobenzyl)-N′-(1,3-dioxo-2,3-dihydro-1H-5-isoindolyl)urea]
53 | 2270 | O=C(Nc1ccc2c(c1)C(=O)NC2=O)Nc1c[nH]c2ccccc12 [Example 69, N-(1,3-Dioxo-2,3-dihydro-1H-5-isoindolyl)-N′-(1H-3-indolyl)urea]
54 | 400 | O=C(Nc1ccc2c(c1)C(=O)NC2=O)Nc1ccc2[nH]ccc2c1 [Example 70, N-(1,3-Dioxo-2,3-dihydro-1H-5-isoindolyl)-N′-(1H-5-indolyl)urea]
55 | 900 | O=C(Nc1ccccc1)Nc1ccc2c(c1)C(=O)NC2=O [Example 72, N1-(1,3-Dioxo-2,3-dihydro-1H-5-isoindolyl)-N′-phenylurea]
56 | 410 | O=C(NCc1ccccc1)Nc1ccc2c(c1)C(=O)NC2=O [Example 73, N-Benzyl-N′-(1,3-dioxo-2,3-dihydro-1H-5-isoindolyl)urea]
57 | 8300 | CCCNC(=O)Nc1ccc2c(c1)C(=O)NC2=O [Example 74, N-(1,3-Dioxo-2,3-dihydro-1H-5-isoindolyl)-N′-propylurea]
